Assay results taken from patent US20260001871A1, “TRIAZOLE DERIVATIVES AS MODULATORS OF MAS-RELATED G-PROTEIN RECEPTOR D” (ESCIENT PHARMACEUTICALS, INC., priority 2022, published 2026).
pIC50: −log10 of the molar value.

Biological target: human MRGPRD (Homo sapiens, UniProt Q8TDS7)
Assay: MRGPRD antagonist activity, IP-One HTRF assay in CHO cells stably expressing human MRGPRD (versus 100 μM β-Alanine agonist)
Type: cell-based
How it was run: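 CHO cells stably expressing human MRGPRD, plated overnight at 37 °C, were treated with antagonist plus agonist in Tris-HCl/NaCl/LiCl buffer pH 8, incubated 1 h at 37 °C then 1 h at room temperature. IP-1 accumulation read by HTRF; IC50 and percent antagonism of maximum efficacy averaged, SEM reported.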

human MRGPRD, sequence (Q8TDS7 whole entry): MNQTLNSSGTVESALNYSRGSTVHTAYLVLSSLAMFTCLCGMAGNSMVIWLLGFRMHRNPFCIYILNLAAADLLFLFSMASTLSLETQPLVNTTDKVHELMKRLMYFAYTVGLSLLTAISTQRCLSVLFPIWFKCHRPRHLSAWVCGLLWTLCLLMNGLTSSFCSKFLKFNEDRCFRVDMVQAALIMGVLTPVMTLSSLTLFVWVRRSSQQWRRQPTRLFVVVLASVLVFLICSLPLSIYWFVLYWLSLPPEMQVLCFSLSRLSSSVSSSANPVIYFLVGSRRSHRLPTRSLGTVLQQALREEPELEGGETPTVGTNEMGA

| pIC50 | SMILES |
| --- | --- |
| 6.30 to 7.00 | Cc1nn(C)c(C)c1-c1ccc(-n2nnc(C(=O)Nc3ccncc3)c2C2CC2)cc1F [Compound 7-234] |
| 6.30 to 7.00 | Cc1cc(NC(=O)c2nnn(-c3ccc(-c4ccc(C#N)cc4)c(F)c3)c2C2CC2)ccn1 [Compound 7-235] |
| 6.30 to 7.00 | Cc1cc(NC(=O)c2nnn(-c3cccc(-c4ccn(C5CCCC5)n4)c3)c2C2CC2)ccn1 [Compound 7-236] |
| 6.30 to 7.00 | CC(=O)c1cccc(-c2cccc(-n3nnc(C(=O)Nc4ccncc4)c3C3CC3)c2)c1 [Compound 7-237] |
| 6.30 to 7.00 | CC(=O)c1ccc(-c2ccc(-n3nnc(C(=O)Nc4ccncc4)c3C3CC3)cc2C)cc1 [Compound 7-238] |
| 6.30 to 7.00 | Cc1nn(C)c(C)c1-c1ccc(-n2nnc(C(=O)Nc3ccncc3)c2C2CC2)c(OC(F)(F)F)c1 [Compound 7-239] |
| 6.30 to 7.00 | Cc1c(-c2cccc(-n3nnc(C(=O)Nc4ccncc4)c3C3CC3)c2)cnn1-c1ccccc1 [Compound 7-240] |
| 6.00 to 6.30 | O=C(Nc1ccncc1)c1nnn(-c2cccc(-c3cnn(CC4CC4)c3)c2)c1C1CC1 [Compound 7-241] |
| 6.00 to 6.30 | Cc1cc(NC(=O)c2nnn(-c3ccc(-c4ccc(C#N)cc4)nc3)c2C2CC2)ccn1 [Compound 7-242] |
| 6.00 to 6.30 | O=C(Nc1ccncc1)c1nnn(-c2cccc(-c3cnn(C4CCC4)c3)c2)c1C1CC1 [Compound 7-243] |
| 6.00 to 6.30 | COc1ccccc1-c1ccc(-n2nnc(C(=O)Nc3ccncc3)c2C2CC2)c(C)c1 [Compound 7-244] |
| 6.00 to 6.30 | CC(=O)c1cccc(-c2cc(-n3nnc(C(=O)Nc4ccncc4)c3C3CC3)ccc2F)c1 [Compound 7-245] |
| 6.00 to 6.30 | Cc1cc(-n2nnc(C(=O)Nc3ccncc3)c2C2CC2)ccc1-c1cn(C)nc1C [Compound 7-246] |
| 6.00 to 6.30 | COc1ccc(-c2cccc(-n3nnc(C(=O)Nc4ccncc4)c3C3CC3)c2)c(F)c1 [Compound 7-247] |
| 6.00 to 6.30 | O=C(Nc1ccncc1)c1nnn(-c2cccc(-c3cnn(CC(F)(F)F)c3)c2)c1C1CC1 [Compound 7-248] |
| 6.00 to 6.30 | CC(=O)c1ccc(-c2cccc(-n3nnc(C(=O)Nc4ccncc4)c3C3CC3)c2)cc1C [Compound 7-249] |
| 6.00 to 6.30 | Cc1nn(C)c(C)c1-c1ccc(-n2nnc(C(=O)Nc3ccncc3)c2C2CC2)cc1C#N [Compound 7-250] |
| 6.00 to 6.30 | CC(C)n1cc(-c2cccc(-n3nnc(C(=O)Nc4ccncc4)c3C3CC3)c2)cn1 [Compound 7-251] |
| 6.00 to 6.30 | CC(=O)c1ccc(-c2cccc(-n3nnc(C(=O)Nc4ccncc4)c3C3CC3)c2)c(F)c1C [Compound 7-252] |
| 6.00 to 6.30 | Cc1cc(NC(=O)c2nnn(-c3cccc(-c4ccn(C)n4)c3)c2C2CC2)ccn1 [Compound 7-253] |
| 6.00 to 6.30 | Cc1nn(-c2ccccc2)c(C)c1-c1cccc(-n2nnc(C(=O)Nc3ccncc3)c2C2CC2)c1 [Compound 7-255] |
| 6.00 to 6.30 | O=C(Nc1ccncc1)c1nnn(-c2cccc(-c3cnn(-c4ccccc4)c3)c2)c1C1CC1 [Compound 7-256] |
| 6.00 to 6.30 | Cc1cc(-c2ccccc2)ccc1-n1nnc(C(=O)Nc2ccncc2)c1C1CC1 [Compound 7-257] |
| 6.00 to 6.30 | COc1ccc(-c2cccc(-n3nnc(C(=O)Nc4ccncc4)c3C3CC3)c2)cc1C [Compound 7-258] |
| 6.00 to 6.30 | CC(=O)c1cccc(-c2cc(-n3nnc(C(=O)Nc4ccncc4)c3C3CC3)ccc2C)c1 [Compound 7-259] |

| pIC50 | SMILES |
| --- | --- |
| 6.00 to 6.30 | Cc1ccc(-n2nnc(C(=O)Nc3ccncc3)c2C2CC2)cc1-c1cnn(C(C)C)c1 [Compound 7-260] |
| 6.00 to 6.30 | COc1ccccc1-c1ccc(-n2nnc(C(=O)Nc3ccncc3)c2C2CC2)cc1C [Compound 7-261] |
| 6.00 to 6.30 | CCn1ccc(-c2cccc(-n3nnc(C(=O)Nc4ccnc(C)c4)c3C3CC3)c2)n1 [Compound 7-262] |
| 6.00 to 6.30 | CC(=O)c1ccc(-c2cccc(-n3nnc(C(=O)Nc4ccncc4)c3C3CC3)c2)c(C)c1 [Compound 7-263] |
| 6.00 to 6.30 | N#Cc1ccc(-c2cccc(-n3nnc(C(=O)Nc4ccncc4)c3C3CC3)c2)cc1 [Compound 7-264] |
| 6.00 to 6.30 | CC(=O)c1ccc(-c2cccc(-n3nnc(C(=O)Nc4ccncc4)c3C3CC3)c2)s1 [Compound 7-265] |
| 6.00 to 6.30 | O=C(Nc1ccncc1)c1nnn(-c2cccc(-c3cnn(C4CCCC4)c3)c2)c1C1CC1 [Compound 7-266] |
| 6.00 to 6.30 | Cc1nn(C)c(C)c1-c1ccc(-n2nnc(C(=O)Nc3ccncc3)c2C2CC2)c(C#N)c1 [Compound 7-267] |
| 6.00 to 6.30 | COc1ccc(-c2cccc(-n3nnc(C(=O)Nc4ccncc4)c3C3CC3)c2)cc1 [Compound 7-268] |
| 6.00 to 6.30 | N#CCc1cccc(-c2cccc(-n3nnc(C(=O)Nc4ccncc4)c3C3CC3)c2)c1 [Compound 7-269] |
| 6.00 to 6.30 | O=C(Nc1ccncc1)c1nnn(-c2cccc(-c3cnn(Cc4ccccc4)c3)c2)c1C1CC1 [Compound 7-270] |
| 6.00 to 6.30 | Cc1cc(-n2nnc(C(=O)Nc3ccncc3)c2C2CC2)ccc1-c1c(C)nn(C)c1C [Compound 7-271] |
| 6.00 to 6.30 | COc1cc(-c2ccccc2)ccc1-n1nnc(C(=O)Nc2ccnc(C)c2)c1C1CC1 [Compound 7-272] |
| 6.00 to 6.30 | N#CCc1ccc(-c2cccc(-n3nnc(C(=O)Nc4ccncc4)c3C3CC3)c2)cc1 [Compound 7-273] |
| 6.00 to 6.30 | CC(=O)c1ccc(-c2cccc(-n3nnc(C(=O)Nc4ccncc4)c3C3CC3)c2)cc1 [Compound 7-274] |
| 6.00 to 6.30 | COc1cc(-n2nnc(C(=O)Nc3ccncc3)c2C2CC2)ccc1-c1c(C)nn(C)c1C [Compound 7-275] |
| 6.00 to 6.30 | O=C(Nc1ccncc1)c1nnn(-c2cccc(-c3ccccc3O)c2)c1C1CC1 [Compound 7-276] |
| 6.00 to 6.30 | O=C(Nc1ccncc1)c1nnn(-c2cccc(-c3ccc(O)cc3)c2)c1C1CC1 [Compound 7-277] |
| 6.00 to 6.30 | Cc1ccc(CNC(=O)c2nnn(-c3cccc(-c4ccn(C5CCC5)n4)c3)c2C2CC2)cn1 [Compound 7-278] |
| 6.00 to 6.30 | Cc1cc(NC(=O)c2nnn(-c3ccc(-c4ccccc4)cn3)c2C2CC2)ccn1 [Compound 7-279] |
| 6.00 to 6.30 | CC(=O)c1ccc(-c2cccc(-n3nnc(C(=O)Nc4ccncc4)c3C3CC3)c2)cc1F [Compound 7-280] |
| 6.00 to 6.30 | Cc1nn(-c2ccccc2)cc1-c1cccc(-n2nnc(C(=O)Nc3ccncc3)c2C2CC2)c1 [Compound 7-281] |
| 6.00 to 6.30 | Cc1cc(NC(=O)c2nnn(-c3cccc(-c4ccn(-c5ccccc5)n4)c3)c2C2CC2)ccn1 [Compound 7-282] |
| 6.00 to 6.30 | O=C(Nc1ccncc1)c1nnn(-c2cccc(-c3cnn4c3CCC4)c2)c1C1CC1 [Compound 7-283] |
| 6.00 to 6.30 | CCc1ccc(-c2cccc(-n3nnc(C(=O)Nc4ccncc4)c3C3CC3)c2)cc1 [Compound 7-284] |

| pIC50 | SMILES |
| --- | --- |
| 5.52 to 6.00 | O=C(Nc1ccncc1)c1nnn(-c2cccc(-c3ccccc3C(F)(F)F)c2)c1C1CC1 [Compound 7-285] |
| 5.52 to 6.00 | COc1ccc(-c2cccc(-n3nnc(C(=O)Nc4ccncc4)c3C3CC3)c2)c(OC)c1 [Compound 7-286] |
| 5.52 to 6.00 | COc1ccc(-c2cccc(-n3nnc(C(=O)Nc4ccncc4)c3C3CC3)c2)c(C)c1 [Compound 7-287] |
| 5.52 to 6.00 | CC(C)(C)n1cc(-c2cccc(-n3nnc(C(=O)Nc4ccncc4)c3C3CC3)c2)cn1 [Compound 7-288] |
| 5.52 to 6.00 | CC(C)n1cc(-c2cc(-n3nnc(C(=O)Nc4ccncc4)c3C3CC3)ccc2F)cn1 [Compound 7-289] |
| 5.52 to 6.00 | Cc1nn(C2CCC2)c(C)c1-c1cccc(-n2nnc(C(=O)Nc3ccncc3)c2C2CC2)c1 [Compound 7-290] |
| 5.52 to 6.00 | Cc1cc(NC(=O)c2nnn(-c3cccc(-c4c(C)nn(C)c4C)c3)c2C2CC2)ccn1 [Compound 7-291] |
| 5.52 to 6.00 | COc1cccc(-c2cccc(-n3nnc(C(=O)Nc4ccncc4)c3C3CC3)c2)c1 [Compound 7-292] |
| 5.52 to 6.00 | N#Cc1cccc(-c2cccc(-n3nnc(C(=O)Nc4ccncc4)c3C3CC3)c2)c1 [Compound 7-293] |
| 5.52 to 6.00 | O=C(Nc1ccncc1)c1nnn(-c2cccc(-c3cccc(C(F)(F)F)c3)c2)c1C1CC1 [Compound 7-294] |
| 5.52 to 6.00 | O=C(Nc1ccncc1)c1nnn(-c2cccc(-c3ccn[nH]3)c2)c1C1CC1 [Compound 7-295] |
| 5.52 to 6.00 | O=C(Nc1ccncc1)c1nnn(-c2cccc(-c3ccc[nH]3)c2)c1C1CC1 [Compound 7-296] |
| 5.52 to 6.00 | CC(=O)c1ccc(-c2cccc(-n3nnc(C(=O)NCc4ccc(C)nc4)c3C3CC3)c2)c(F)c1 [Compound 7-297] |
| 5.52 to 6.00 | O=C(Nc1ccncc1)c1nnn(-c2cccc(-c3ccccc3F)c2)c1C1CC1 [Compound 7-298] |
| 5.52 to 6.00 | O=C(Nc1ccncc1)c1nnn(-c2cccc(-c3cccc(O)c3)c2)c1C1CC1 [Compound 7-299] |
| 5.52 to 6.00 | Cc1nn(C)c(C)c1-c1ccc(-n2nnc(C(=O)Nc3ccncc3)c2C2CC2)c(C(F)(F)F)c1 [Compound 7-300] |
| 5.52 to 6.00 | COCn1cc(-c2cccc(-n3nnc(C(=O)Nc4ccncc4)c3C3CC3)c2)cn1 [Compound 7-301] |
| 5.52 to 6.00 | O=C(Nc1ccncc1)c1nnn(-c2cccc(-c3ccccc3Cl)c2)c1C1CC1 [Compound 7-302] |
| 5.52 to 6.00 | COc1ccc(-c2cccc(-n3nnc(C(=O)Nc4ccncc4)c3C3CC3)c2)cc1F [Compound 7-303] |
| 5.52 to 6.00 | CCc1ccc(-n2nnc(C(=O)Nc3ccncc3)c2C2CC2)cc1-c1cnn(C(C)C)c1 [Compound 7-304] |
| 5.52 to 6.00 | Cc1c(-c2cccc(-n3nnc(C(=O)Nc4ccncc4)c3C3CC3)c2)cnn1C [Compound 7-305] |
| 5.52 to 6.00 | CCCn1cc(-c2cccc(-n3nnc(C(=O)Nc4ccncc4)c3C3CC3)c2)cn1 [Compound 7-306] |
| 5.52 to 6.00 | O=C(Nc1ccncc1)c1nnn(-c2cccc(-c3ccc(Cl)cc3)c2)c1C1CC1 [Compound 7-307] |
| 5.52 to 6.00 | O=C(Nc1ccncc1)c1nnn(-c2cccc(-c3cccc(F)c3)c2)c1C1CC1 [Compound 7-308] |
| 5.52 to 6.00 | CCn1cc(-c2cccc(-n3nnc(C(=O)Nc4ccncc4)c3C3CC3)c2)cn1 [Compound 7-309] |
